Source: paper PMC9963398, “Discovery of New Quinolone-Based Diarylamides as Potent B-RAF^V600E/C-RAF Kinase Inhibitors Endowed with Promising In Vitro Anticancer Activity” (International Journal of Molecular Sciences, 2023)

Legend:
B-RAF^V600E = biological target: T1, B-RAF^V600E (Homo sapiens, UniProt P15056, V600E); experiment: HotSpot kinase assay (RBC), B-RAF^V600E; format: biochemical; conditions: 10 µM ATP, 10-dose singlicate IC50 mode
T1 construct: purchased Reaction Biology Corporation (RBC), Kinase HotSpot service

786-0 = experiment: NCI-60 five-dose SRB assay; format: cell-based; conditions: Homo sapiens; 786-0, Renal cancer, five-dose test
Description: (§1) The anticancer screening of target compounds over a full panel of 60 human cancer cell lines was carried out using Sulforhodamine B (SRB) assay at the National Cancer Institute (NCI), Bethesda, Maryland, USA, employing the standard protocol.

A498 = experiment: NCI-60 five-dose SRB assay; format: cell-based; conditions: Homo sapiens; A498, Renal cancer, five-dose test
Description: as §1

BT-549 = experiment: NCI-60 five-dose SRB assay; format: cell-based; conditions: Homo sapiens; BT-549, Breast cancer, five-dose test
Description: as §1

CAKI-1 = experiment: NCI-60 five-dose SRB assay; format: cell-based; conditions: Homo sapiens; CAKI-1, Renal cancer, five-dose test
Description: as §1

CCRF-CEM = experiment: NCI-60 five-dose SRB assay; format: cell-based; conditions: Homo sapiens, Leukemia, five-dose test
Description: as §1

COLO 205 = experiment: NCI-60 five-dose SRB assay; format: cell-based; conditions: Homo sapiens; COLO 205, Colon cancer, five-dose test
Description: as §1

DU-145 = experiment: NCI-60 five-dose SRB assay; format: cell-based; conditions: Homo sapiens; DU-145, Prostate cancer, five-dose test
Description: as §1

EKVX = experiment: NCI-60 five-dose SRB assay; format: cell-based; conditions: Homo sapiens, NSCL cancer, five-dose test
Description: as §1

HCC-2998 = experiment: NCI-60 five-dose SRB assay; format: cell-based; conditions: Homo sapiens; HCC-2998, Colon cancer, five-dose test
Description: as §1

HCT-116 = experiment: NCI-60 five-dose SRB assay; format: cell-based; conditions: Homo sapiens; HCT-116, Colon cancer, five-dose test
Description: as §1

HCT-15 = experiment: NCI-60 five-dose SRB assay; format: cell-based; conditions: Homo sapiens; HCT-15, Colon cancer, five-dose test
Description: as §1

HOP-92 = experiment: NCI-60 five-dose SRB assay; format: cell-based; conditions: Homo sapiens; HOP-92, NSCL cancer, five-dose test
Description: as §1

HS 578T = experiment: NCI-60 five-dose SRB assay; format: cell-based; conditions: Homo sapiens, Breast cancer, five-dose test
Description: as §1

HT29 = experiment: NCI-60 five-dose SRB assay; format: cell-based; conditions: Homo sapiens, HT-29; HT29, Colon cancer, five-dose test
Description: as §1

IGROV1 = experiment: NCI-60 five-dose SRB assay; format: cell-based; conditions: Homo sapiens, IGROV-1; IGROV1, Ovarian cancer, five-dose test
Description: as §1

LOX IMVI = experiment: NCI-60 five-dose SRB assay; format: cell-based; conditions: Homo sapiens, Melanoma, five-dose test
Description: as §1

MALME-3M = experiment: NCI-60 five-dose SRB assay; format: cell-based; conditions: Homo sapiens, Melanoma, five-dose test
Description: as §1

MCF7 = experiment: NCI-60 five-dose SRB assay; format: cell-based; conditions: Homo sapiens; MCF7, Breast cancer, five-dose test
Description: as §1

MDA-MB-435 = experiment: NCI-60 five-dose SRB assay; format: cell-based; conditions: Homo sapiens; MDA-MB-435, Melanoma, five-dose test
Description: as §1

MOLT-4 = experiment: NCI-60 five-dose SRB assay; format: cell-based; conditions: Homo sapiens; MOLT-4, Leukemia, five-dose test
Description: as §1

NCI-H23 = experiment: NCI-60 five-dose SRB assay; format: cell-based; conditions: Homo sapiens; NCI-H23, NSCL cancer, five-dose test
Description: as §1

NCI-H322M = experiment: NCI-60 five-dose SRB assay; format: cell-based; conditions: Homo sapiens, NSCL cancer, five-dose test
Description: as §1

NCI-H460 = experiment: NCI-60 five-dose SRB assay; format: cell-based; conditions: Homo sapiens; NCI-H460, NSCL cancer, five-dose test
Description: as §1

NCI-H522 = experiment: NCI-60 five-dose SRB assay; format: cell-based; conditions: Homo sapiens; NCI-H522, NSCL cancer, five-dose test
Description: as §1

OVCAR-3 = experiment: NCI-60 five-dose SRB assay; format: cell-based; conditions: Homo sapiens; OVCAR-3, Ovarian cancer, five-dose test
Description: as §1

OVCAR-5 = experiment: NCI-60 five-dose SRB assay; format: cell-based; conditions: Homo sapiens; OVCAR-5, Ovarian cancer, five-dose test
Description: as §1

OVCAR-8 = experiment: NCI-60 five-dose SRB assay; format: cell-based; conditions: Homo sapiens; OVCAR-8, Ovarian cancer, five-dose test
Description: as §1

RXF 393 = experiment: NCI-60 five-dose SRB assay; format: cell-based; conditions: Homo sapiens; RXF 393, Renal cancer, five-dose test
Description: as §1

SF-295 = experiment: NCI-60 five-dose SRB assay; format: cell-based; conditions: Homo sapiens; SF-295, CNS cancer, five-dose test
Description: as §1

SF-539 = experiment: NCI-60 five-dose SRB assay; format: cell-based; conditions: Homo sapiens; SF-539, CNS cancer, five-dose test
Description: as §1

SK-MEL-28 = experiment: NCI-60 five-dose SRB assay; format: cell-based; conditions: Homo sapiens; SK-MEL-28, Melanoma, five-dose test
Description: as §1

SK-MEL-2 = experiment: NCI-60 five-dose SRB assay; format: cell-based; conditions: Homo sapiens; SK-MEL-2, Melanoma, five-dose test
Description: as §1

SK-MEL-5 = experiment: NCI-60 five-dose SRB assay; format: cell-based; conditions: Homo sapiens; SK-MEL-5, Melanoma, five-dose test
Description: as §1

SNB-19 = experiment: NCI-60 five-dose SRB assay; format: cell-based; conditions: Homo sapiens; SNB-19, CNS cancer, five-dose test
Description: as §1

SNB-75 = experiment: NCI-60 five-dose SRB assay; format: cell-based; conditions: Homo sapiens; SNB-75, CNS cancer, five-dose test
Description: as §1

UO-31 = experiment: NCI-60 five-dose SRB assay; format: cell-based; conditions: Homo sapiens; UO-31, Renal cancer, five-dose test
Description: as §1

MDA-MB-231/ATCC = experiment: cells; conditions: Homo sapiens
Description: as §1

MDA-MB-468 = experiment: cells; conditions: Homo sapiens
Description: as §1

PC-3 = experiment: cells; conditions: Homo sapiens
Description: as §1

C-RAF = C-RAF (Homo sapiens, UniProt P04049); experiment: HotSpot kinase assay (RBC), C-RAF; conditions: IC50 C-RAF, 10 µM ATP, 10-dose singlicate IC50 mode
Chain of C-RAF (P04049 whole entry): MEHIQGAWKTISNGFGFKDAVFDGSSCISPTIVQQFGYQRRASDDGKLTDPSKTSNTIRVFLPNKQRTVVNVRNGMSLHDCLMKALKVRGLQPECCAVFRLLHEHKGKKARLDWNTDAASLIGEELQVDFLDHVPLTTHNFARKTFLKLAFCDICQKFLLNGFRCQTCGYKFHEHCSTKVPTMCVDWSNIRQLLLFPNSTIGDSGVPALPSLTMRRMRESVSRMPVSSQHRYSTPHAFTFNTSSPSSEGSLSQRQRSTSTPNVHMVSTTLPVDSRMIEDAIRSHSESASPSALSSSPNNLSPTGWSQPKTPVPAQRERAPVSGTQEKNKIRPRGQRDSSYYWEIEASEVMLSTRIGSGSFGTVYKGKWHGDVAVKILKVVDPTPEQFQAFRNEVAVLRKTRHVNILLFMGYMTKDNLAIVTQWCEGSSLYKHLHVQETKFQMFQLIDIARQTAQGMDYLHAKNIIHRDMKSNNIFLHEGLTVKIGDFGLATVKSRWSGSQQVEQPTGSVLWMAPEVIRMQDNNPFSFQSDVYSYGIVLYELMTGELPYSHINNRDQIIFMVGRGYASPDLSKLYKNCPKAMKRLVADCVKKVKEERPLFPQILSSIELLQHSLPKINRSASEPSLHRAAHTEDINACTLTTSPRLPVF
Description: Reaction Biology Corporation (RBC) Kinase HotSpotSM service was utilized for cell-free biochemical kinase evaluation of the target compounds according to the reported assay protocol [46].

T1 sequence (P15056 whole entry V600E): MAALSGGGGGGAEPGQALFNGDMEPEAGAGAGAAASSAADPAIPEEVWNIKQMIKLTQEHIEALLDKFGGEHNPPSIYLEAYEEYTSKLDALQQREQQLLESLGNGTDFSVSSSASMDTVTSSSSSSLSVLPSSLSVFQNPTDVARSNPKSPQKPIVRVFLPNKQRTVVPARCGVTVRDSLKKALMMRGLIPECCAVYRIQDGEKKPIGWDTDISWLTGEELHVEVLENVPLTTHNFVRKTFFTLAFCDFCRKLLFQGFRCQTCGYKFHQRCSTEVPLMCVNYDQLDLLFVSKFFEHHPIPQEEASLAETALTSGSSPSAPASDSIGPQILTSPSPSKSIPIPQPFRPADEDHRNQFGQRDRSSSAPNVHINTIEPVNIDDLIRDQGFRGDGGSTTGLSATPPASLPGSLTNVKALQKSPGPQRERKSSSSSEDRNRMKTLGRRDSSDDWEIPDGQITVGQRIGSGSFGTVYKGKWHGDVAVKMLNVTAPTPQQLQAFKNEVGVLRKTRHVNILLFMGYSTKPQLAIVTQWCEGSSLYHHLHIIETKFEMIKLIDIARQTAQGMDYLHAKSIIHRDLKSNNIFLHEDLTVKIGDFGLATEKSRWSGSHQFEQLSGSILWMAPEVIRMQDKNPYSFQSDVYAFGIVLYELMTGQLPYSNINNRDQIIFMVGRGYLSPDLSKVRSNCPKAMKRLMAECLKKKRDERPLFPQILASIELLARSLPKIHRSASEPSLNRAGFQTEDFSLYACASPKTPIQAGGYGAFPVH

For `CN1CCCN(Cc2ccc(C(=O)Nc3cccc(Nc4ccc5c(O)cccc5n4)c3)cc2C(F)(F)F)CC1` [Compound 17b, N-(3-((5-hydroxyquinolin-2-yl)amino)phenyl)-4-((4-methyl-1,4-diazepan-1-yl)methyl)-3-(trifluoromethyl)benzamide], the IC50 (B-RAF^V600E) was 128 ± 0.05 nM, the GI50 (786-0) was 2060 nM and the GI50 (A498) was 15300 nM. For the same compound, the GI50 (BT-549) was 1800 nM, the GI50 (CAKI-1) was 1790 nM and the GI50 (CCRF-CEM) was 2070 nM. For the same compound, the GI50 (COLO 205) was 1830 nM, the GI50 (DU-145) was 3270 nM and the GI50 (EKVX) was 1820 nM. For the same compound, the GI50 (HCC-2998) was 1800 nM, the GI50 (HCT-116) was 1620 nM and the GI50 (HCT-15) was 1930 nM. The GI50 (HOP-92) was 1640 nM, the GI50 (HS 578T) was 1930 nM and the GI50 (HT29) was 1920 nM. For the same compound, the GI50 (IGROV1) was 2560 nM, the GI50 (LOX IMVI) was 1630 nM and the GI50 (MALME-3M) was 1700 nM. It also gave a GI50 (MCF7) of 1680 nM, a GI50 (MDA-MB-435) of 1780 nM and a GI50 (MOLT-4) of 2110 nM. The GI50 (NCI-H23) was 1780 nM, the GI50 (NCI-H322M) was 3270 nM and the GI50 (NCI-H460) was 1810 nM. For the same compound, the GI50 (NCI-H522) was 1840 nM, the GI50 (OVCAR-3) was 1970 nM and the GI50 (OVCAR-5) was 11400 nM. For the same compound, the GI50 (OVCAR-8) was 2510 nM, the GI50 (RXF 393) was 1850 nM and the GI50 (SF-295) was 1670 nM. The GI50 (SF-539) was 1700 nM, the GI50 (SK-MEL-28) was 1820 nM and the GI50 (SK-MEL-2) was 1810 nM. It also gave a GI50 (SK-MEL-5) of 1720 nM, a GI50 (SNB-19) of 2030 nM and a GI50 (SNB-75) of 1320 nM. The GI50 (UO-31) was 2040 nM, the GI50 (MDA-MB-231/ATCC) was 1650 nM and the GI50 (MDA-MB-468) was 1660 nM. For the same compound, the GI50 (PC-3) was 1870 nM and the IC50 (C-RAF) was 65.3 ± 0.6 nM.
